experiment: Human HepG2 cell viability assay in 384 well format; type: toxicity, cell-based; design: dose 125 nL, time 70.5 hour; cytotoxicity at 70.5 h: concentration not given beside the values; conditions: HepG2 cells, read-out: Inhibition

| Structure (SMILES) | cytotoxicity at 70.5 h [%] |
| --- | --- |
| CN(Cc1ccno1)c1nc(C2CCCC2)nc2c1cnn2C | -2.09 |
| Cc1nc(C)n(CC2CN(CCc3ccccc3Cl)CCO2)n1 (configuration not stated) | 39.5 |
| COc1ccc(NC(=O)c2cnc(C3CCN(C(C)=O)C3)nc2C)cc1 (configuration not stated) | 17.3 |
| CC(C)OCCN1CCN(C(C)c2nc(C3CC3)no2)CC1 (configuration not stated) | 17.9 |
| O=C(NCCC(=O)N1CCCC1)c1cccnc1 | 17.4 |
| Cc1ccc(C2(O)CCN(Cc3nnc(-c4cccnc4)o3)CC2)nc1 | -2.19 |
| Cc1cc(C)n(CC2CCCN2CCS(C)(=O)=O)n1 (configuration not stated) | -9.56 |
| Cc1cccc2c(CCNS(=O)(=O)C3CCOC3)c[nH]c12 (configuration not stated) | 12.8 |
| Cc1cc2nccc(C3CCCN(C(=O)c4cnccn4)C3)n2n1 (configuration not stated) | 0.174 |
| Cc1c(NC(=O)c2ncn[nH]2)cccc1C(=O)NC(C)(C)C | -12.5 |
| O=C(O)C1CCN(C[C@H]2CC[C@@H](Cc3ccc4c(c3)OCO4)O2)CC1 | 8.69 |
| CC1CCCCN1S(=O)(=O)NCc1cccnc1OC1CCCC1 (configuration not stated) | -2.43 |
| Cc1ncccc1OCC(=O)N1CCN[C@H]2CS(=O)(=O)C[C@H]21 | -11.5 |
| CC(C)NC(=O)c1nnn(-c2ccccc2)c1C1CC1 | -6.4 |
| CC(=O)CCCC(=O)N(Cc1ccsc1)CC(C)C | -5.67 |
| CN(C)c1no[n+]([O-])c1-c1ccccc1 | 20.3 |
| CS(=O)(=O)CC(=O)N1C[C@H]2CCC[C@@]2(COCc2ccncc2)C1 | -3.98 |
| CN1CCN(CCCOc2ccccc2CN2C[C@H]3CC[C@H]2C3)CC1 | 17.4 |
| COc1ccc(OC2CCN(C(=O)CCc3n[nH]c(N)n3)CC2)cc1 | 21.5 |
| CN1CCC(C(=O)N2CCC(c3ccc4c(N)n[nH]c4n3)CC2)CC1 | -0.601 |
| CC(C)c1cc(C(=O)NCC2CCCN(C(C)C)C2)n(C)n1 (configuration not stated) | -0.374 |
| O=C(CS(=O)(=O)c1ccccc1Cl)NC1CCCCNC1=O (configuration not stated) | -25.9 |
| CN1CCOC(CNC(=O)COc2ccc(F)cc2F)C1 (configuration not stated) | 0.568 |

| Structure (SMILES) | cytotoxicity at 70.5 h [%] |
| --- | --- |
| Cc1nc(CN2C[C@@H]3CN(C(=O)CC(F)(F)F)C[C@@H]3C2=O)cs1 | -9.18 |
| CCOCCC(=O)N1C[C@H]2CC[C@@H]1CN(c1ncccn1)C2 | -5.84 |
| CC(=O)N1CCN([C@@H]2CC[C@@H](NC(=O)c3ccc(C)nc3)[C@H]2O)CC1 | -5.95 |
| O=C(c1ccoc1)N1CCO[C@]2(CCC[C@@H]2COCc2cccnc2)C1 | -1.92 |
| c1csc(-c2noc(CCCN3CCCC3Cn3cccn3)n2)c1 (configuration not stated) | -8.63 |
| Cc1noc(C2CCCCN2C(=O)NC2CCCC2)n1 (configuration not stated) | -7.87 |
| CCc1cnc2c(c1Nc1ccc(C)c(F)c1)c(=O)n(C)c(=O)n2C | -8.17 |
| Cc1nc2c(c(C)c1CC(=O)NCc1ccco1)c(=O)[nH]n2C | -3.09 |
| COc1ccc(NC(=O)N2CCC(c3nnc[nH]3)CC2)cc1C | -3.69 |
| O=C(N1CCCC1)N1CCCC(c2nccn2Cc2ccncc2)C1 (configuration not stated) | -8.72 |
| Cc1nn(C)c(N2CCOCC2)c1CNCc1cccnc1 | 24.7 |
| O=C1CC2(CCN(C(=O)c3ccccc3)C2)Nc2ccccc2N1 (configuration not stated) | -17.8 |
| O=C(CNC(=O)c1cnc2ccccc2c1O)NCCCn1ccnc1 | -16.5 |
| O=C(Nc1nc2c(s1)CN(S(=O)(=O)C1CC1)CC2)c1ccccn1 | -1.49 |
| Cc1c(C)n2c(SCC(=O)N3CCC(C)CC3)nnc2[nH]c1=O | -4.99 |
| CC1(C)OCC(CNC(=O)c2cnn(-c3cc(Cl)ccc3Cl)c2N)O1 (configuration not stated) | -5.2 |
| Cc1nccn1-c1nccnc1C1CCCN(C)C1 (configuration not stated) | -4.67 |
| COc1ccccc1-c1nnc2n1NC(N)=C(C#N)S2 | -28.8 |
| Cc1cc(S(=O)(=O)N2CCC(N3CCC(O)C3)CC2)c(Cl)cc1Cl (configuration not stated) | -4.51 |
| O=C(C1CC(F)(F)C1)N1C[C@@H]2CN(Cc3ccsc3)CCO[C@@H]2C1 | -14.8 |
| CN(C)C(=O)[C@H]1C[C@@H]2CCN(Cc3ccoc3)C[C@@H]2O1 | -13.4 |
| Cc1nnc(CSc2ccc(C(F)(F)F)cn2)o1 | 2.72 |
| Cc1ncc(C(=O)N2CC[C@@]3(O)CCN(C4CCCCC4)C[C@H]3C2)cn1 | -7.37 |

| Structure (SMILES) | cytotoxicity at 70.5 h [%] |
| --- | --- |
| CN(CCc1cn[nH]c1)C(=O)C1CC(=O)N(Cc2ccccn2)C1 (configuration not stated) | 6.7 |
| COCCN1CCOCC12CCN(C(=O)Cc1cccs1)CC2 | -6.94 |
| Cc1ccc2nc(C3CCN(CC4CC4)CC3)nn2c1 | 32.6 |
| Cc1cn2c(n1)CCC(NC(=O)CCOc1cccc(F)c1)C2 (configuration not stated) | -4.07 |
| Cc1nc(CN2CCCC(N(C)CCOCC(F)(F)F)C2)no1 (configuration not stated) | -6.75 |
| O=C(O)C1(Oc2cccc(F)c2)CCN(c2ccncc2)CC1 | -0.0629 |
| CCCS(=O)(=O)N1CCC(NC(=O)c2ccc(C)s2)CC1 | -8.95 |
| Cc1ccc(CN2Cc3nnn(C)c3C(COCCN(C)C)C2)s1 (configuration not stated) | -4.13 |
| Cc1ccc(C2CN(Cc3cnc(-c4ccccn4)s3)CCO2)o1 (configuration not stated) | 22.5 |
| Cc1ccc(S(=O)(=O)NCCOc2ccc3nnc(C)n3n2)s1 | -14.5 |
| CC(C)c1cc(N2CCC(N)CC2)n2nccc2n1 | -4 |
| CC(C)Oc1cccc(F)c1C(C(=O)O)N1CCCC1 (configuration not stated) | -11.9 |
| CCc1nc(C2CCCN(C(=O)c3ccncc3)C2)no1 (configuration not stated) | -1.21 |
| CC(C)C(NC(=O)NCCNc1ncccn1)c1cccs1 (configuration not stated) | -6.23 |
| c1ccc(O[C@@H]2CN(Cc3nccs3)[C@@H]3CCCO[C@@H]32)nc1 | 1.57 |
| O=C1CN(Cc2nnc(-c3ccccc3Br)o2)CCN1 | -6.27 |
| Cc1cncc(Oc2ccc(CN)cc2)n1 | -10.6 |
| CC(O)CN(C(=O)NC1CC1)C(C)C (configuration not stated) | 29.8 |
| OCCn1cc(CN2CCN(CCOc3ccccc3F)CC2)cn1 | 16.6 |
| CC(C)c1nc(C2CCCN2c2ccnc(C3CCCC3)n2)no1 (configuration not stated) | -6.75 |
| CC(C)CNC(=O)C(C)N1CCN(C2CCN(C(C)C)CC2)CC1 (configuration not stated) | -12.6 |
| O=c1cc(CN2C[C@H]3CC[C@@H]2CN(Cc2ccccc2)C3)[nH]c(=O)[nH]1 | 2.22 |
| Cc1cc(C(=O)N2CCc3c(CN(C)C)nn(C)c3C2)[nH]n1 | -12.8 |

| Structure (SMILES) | cytotoxicity at 70.5 h [%] |
| --- | --- |
| Fc1cccc(C2(CNC3CCOC4(CCOCC4)C3)CCOCC2)c1 (configuration not stated) | -5.85 |
| Cc1cc(N[C@H]2CN(CC(C)(C)N3CCOCC3)C[C@@H]2C2CC2)ncn1 | -15.4 |
| NS(=O)(=O)CCN1CCOC(c2ccc(Cl)cc2)C1 (configuration not stated) | 2.97 |
| CC(C)(C)c1cnc(CN2CCC(CO)CC2)o1 | -3.87 |
| CSC(C)CCN1CCC(n2cc(C3CCCCC3)nn2)CC1 (configuration not stated) | -1.37 |
| Nc1nnc(C2CC(=O)N(c3ccccc3)C2)s1 (configuration not stated) | -16.4 |
| COCCNc1ccc(CC2CCCN(Cc3c[nH]cn3)C2)nn1 (configuration not stated) | -0.712 |
| Cc1ccc(OC2CCN(C(=O)Cc3c(C)[nH]c(=O)[nH]c3=O)CC2)cc1 | -10.2 |
| CN(Cc1cccnc1)[C@@H]1CN(Cc2cnn(C)c2)[C@@H]2CCCO[C@H]12 | -6.78 |
| O=C(NC1CCCC1)O[C@H]1COCCN(c2nc3ccccc3o2)C1 | -3.6 |
| CN(C)c1ccc(C(=O)N2CCN(CC(O)C(C)(C)C)CC2)nn1 (configuration not stated) | 0.302 |
| CCC(C(=O)NCc1nc(C)cc(C(F)(F)F)n1)n1cccn1 (configuration not stated) | -11.3 |
| Cc1csc(CN2CCC3(CC2)COC(COc2ccccn2)C3)n1 (configuration not stated) | -5.82 |
| CCOc1ccccc1NC(=O)N(CCO)Cc1ccsc1 | 2.23 |
| O=C(c1scc2c1OCCO2)N1CCC(Cc2cccc(CO)c2)C1 (configuration not stated) | -3.37 |
| CN1CCN(CC(CC(=O)Nc2ccc(Cl)cc2)C(=O)O)CC1 (configuration not stated) | -5.4 |
| Cc1noc(C)c1CN1CCO[C@H]2CNC[C@H]21 | -6.78 |
| Cc1cc(C(=O)N2CCCC(C(=O)c3cccs3)C2)c(=O)[nH]c1C (configuration not stated) | 17.8 |
| COc1cccc(CNCCc2cc(F)cc3c2OCOC3)c1OC | 5.71 |
| COCCO[C@@H]1CCN(c2cc(OC)ncn2)[C@H]1Cc1cnn(C)c1 | -4.31 |
| COCc1nc(C(=O)N2CCN(Cc3cc(C)on3)CC2)cs1 | -5.75 |
| Cc1nncn1CCNC(=O)C(C)(C)c1cccc(C(F)(F)F)c1 | -9.3 |
| COC[C@@H]1CCC[C@]12CN(Cc1ccco1)CCO2 | -1.04 |

| Structure (SMILES) | cytotoxicity at 70.5 h [%] |
| --- | --- |
| O=C(c1ccc(NCc2cccc(F)c2)cc1)N1CCCC1 | 1.69 |
| O=C(c1ccc(-n2cnnc2)cc1Cl)N1CCCC(O)(CO)CC1 (configuration not stated) | 15.6 |
| CC1COCCN1C(=O)COc1cccc(Oc2ccccn2)c1 (configuration not stated) | -9.57 |
| O=c1[nH]c(C2CCOC2)nc2cc(F)c(F)cc12 (configuration not stated) | -10.3 |
| Cc1nnc(CN2CCCC(c3cc(C(N)=O)[nH]n3)C2)o1 (configuration not stated) | -15.2 |
| COc1ccnc(N2CCCN(c3nc(C4CC4)ns3)CC2)n1 | -9.55 |
| Cc1ccc(F)c(S(=O)(=O)NCc2cccc(CS(C)(=O)=O)c2)c1 | -18 |
| CC(C)(C)c1oc(C(N)=O)cc1CN1CCCCC(N)C1 (configuration not stated) | -7.89 |
| CC(NC(=O)CN(C)S(C)(=O)=O)c1nnc2n1CCCCC2 (configuration not stated) | 48.1 |
| Cc1ncncc1C(=O)N1CCOC(c2nc(C(C)C)n[nH]2)C1 (configuration not stated) | -4.74 |
| O=C(CO)N1CCOC2(CCCN(c3ncc(F)cn3)C2)C1 (configuration not stated) | -0.965 |
| CC(C)(N)c1cn(C2CCN(C(=O)CCC3CCCCC3)CC2)nn1 | -5.04 |
| CCCn1cnnc1CNC(=O)CC1C(=O)NCCN1CC=C(C)C (configuration not stated) | -0.65 |
| O=C1CCc2cc(NC(=O)N3CCCN(Cc4cccs4)CC3)ccc21 | -8.02 |
| CCCSc1ccccc1NC(=O)N1CCC(N2CCSCC2)CC1 | 0.648 |
| COC1CCN(C(=O)Cn2nc(C)cc2C)CC1 | -3.13 |
| CCC(CO)N(Cc1ccsc1)Cc1ccccc1C(=O)O (configuration not stated) | -8.61 |
| COCCN1C[C@@H]2OCCN(c3ccnc(N(C)C)n3)[C@@H]2C1 | 0.722 |
| COc1ccc(F)c(CNC2CCCc3nc(N(C)C)ncc32)c1 (configuration not stated) | -11.5 |
| CCOC(=O)N1CCC(OC)c2ccccc2N(CC(=O)NC)C(=O)C1 (configuration not stated) | -3.27 |

From ChEMBL document CHEMBL3507680, “University of Dundee, Gates Library screen for HepG2 cell viability”
